Read-outs that look alike come from different tables or passages of the source.

For orientation: IC50 means the concentration that gives 50% inhibition. Broadly, the Kd is the equilibrium constant for the complex coming apart. As a reminder, the EC50 is the concentration at which the effect is half-maximal. Low readings indicate greater potency, high ones weaker potency.

The target in experiment [1] is T1, Serotonin 5-HT2a (Homo sapiens, UniProt P28223).
T1 construct: gene HTR2A
Set-up: Cerep Bioprint off-target panel, functional receptor agonism or antagonism. The conditions noted are these: agonist. The procedure: To discover a potent and selective BDK inhibitor, a subset of the Pfizer compound collection was screened. […] Off target activity was assessed in both CEREP and kinase panels (Supplementary Tables 2, 3).

Experiment [2] concerns the target T2, BDK-BCKDHE2 (biotinylated BDK with full length non-lipoylated E2 core subunit) (Homo sapiens, UniProt O14874).
T2 construct: gene BCKDK; E2 with N-terminal FLAG and TEV site, DBT residues 62-482, bacterial expression, non-lipoylated; with Lipoamide acyltransferase component of branched-chain alpha-keto acid dehydrogenase complex, mitochondrial
Briefly: AlphaLISA BDK-E2 protein-protein interaction, signal decrease. Format: binding. (In general: In Alpha technology, singlet oxygen from a donor bead excites a nearby acceptor bead.)

The target of experiment [3] is T3, BDK (branched-chain ketoacid dehydrogenase kinase, BCKDK; hBDK) (Homo sapiens, UniProt O14874).
T3 construct: purified recombinant kinase; construct details only in Supplementary Information; human stated for the crystal structures
As to the kind of experiment: SPR. Type of experiment: binding. From the text:
SPR on BDK (branched-chain ketoacid dehydrogenase kinase, BCKDK; hBDK)

Experiment [4] deals with T2, BDK-BCKDHE2 (biotinylated BDK with full length non-lipoylated E2 core subunit). Briefly: AlphaLISA BDK-E2 protein-protein interaction, signal increase. Format: binding.
Experiment [5] concerns the target T4, BDK in human skeletal myocytes (Homo sapiens, UniProt O14874).
T4 construct: gene BCKDK; endogenous full kinase in human skeletal myocytes; read-out BCKDH E1alpha phosphorylation
As to the kind of experiment: AlphaLISA SureFire Ultra BCKDH phosphorylation in human skeletal myocytes. Format: cell-based. The conditions noted are these: intact cells; read-out: Human skeletal myocyte IC50 (nM)^a. From the text: AlphaLISA SureFire Ultra BCKDH phosphorylation in human skeletal myocytes on BDK in human skeletal myocytes

Experiment [6] concerns the target T3, BDK (branched-chain ketoacid dehydrogenase kinase, BCKDK; hBDK). Briefly: FRET assay of BDK phosphorylation of E2 RBD-E1 peptide substrate. Format: biochemical. The conditions noted are these: read-out: BDK in vitro IC50 (nM)^a. From the text: FRET assay of BDK phosphorylation of E2 RBD-E1 peptide substrate on BDK (branched-chain ketoacid dehydrogenase kinase, BCKDK; hBDK)

Experiment [7] shares this target. As to the kind of experiment: biochemical. Set-up: TR-FRET BDK kinase assay, phosphorylation of LBD-E1 substrate, 15 uM ATP. The conditions noted are these: read-out: BDK in vitro IC50. The procedure: 705 covered with a lid and allowed to incubate at room temperature for 90 min. Final concentration of 706 LBD-E1 substrate was 50 nM and final concentration of ATP was 15 µM. Following incubation, 707 the enzyme reactions were stopped by adding 5 µL of 4X stop/primary antibody solution 708 containing 100 mM (final) EDTA, 2 nM (final) anti-His Eu antibody, and 1:1000 anti-pE1 antibody 709 in assay buffer. The plates were covered and incubated at room temperature for 30 min. Finally, 710 5 µL of 4X detection reagent consisting of 20 nM (final) anti-rabbit Ulight antibody and 1X LANCE 711 detection buffer in dH2O was then added. The plates were centrifuged for 30 seconds at 113 x g. 712 After a 60 min incubation, the plates were read on an EnVision® MultiReader in TR-FRET mode 713 (excitation 320 nm: emissions 665 nm). The raw data from the EnVision® MultiReader was 714 expressed as a ratio and was analyzed using proprietary software (Activity Base). […] IC50 values were determined from the percent effect data using a 4-parameter logistic dose 718 response model (Activity Base). To discover a potent and selective BDK inhibitor, a subset of the Pfizer compound collection was screened. […] Off target activity was assessed in both CEREP and kinase panels (Supplementary Tables 2, 3).

The target is the same in experiment [8]. Briefly: biochemical. The conditions noted are these: read-out: BDK SPR KD. Set-up: SPR binding to captured BDK, 1:1 binding model. The protocol:
828 Tween-20 and 2% DMSO. The same buffer was used as the running buffer during the 829 experiments. Compound samples were injected at a flow rate of 30 µL/min for 120 seconds of 830 association time followed by at least 300 seconds of dissociation period. The compounds were 831 tested in a concentration series consisting of at least 6 samples made with 2-fold dilution. The 832 highest concentration was selected based on compound potency in the biochemical assay or 833 binding affinity observed in a previous experiment. Multiple blank injections were run before and 834 after each compound series to allow double reference subtraction during data processing and 835 analysis. Radicicol was tested in every experiment as a positive control to assess activity of the 836 captured protein on the surface. A DMSO curve was run during each experiment to properly 837 correct for excluded volume. The data were processed and analyzed using Bruker Analyzer, 838 Scrubber and Biaeval softwares to calculate binding affinities and kinetics by fitting the data to 839 1:1 binding model. To discover a potent and selective BDK inhibitor, a subset of the Pfizer compound collection was screened. […] Off target activity was assessed in both CEREP and kinase panels (Supplementary Tables 2, 3).

T1 sequence (P28223 whole entry): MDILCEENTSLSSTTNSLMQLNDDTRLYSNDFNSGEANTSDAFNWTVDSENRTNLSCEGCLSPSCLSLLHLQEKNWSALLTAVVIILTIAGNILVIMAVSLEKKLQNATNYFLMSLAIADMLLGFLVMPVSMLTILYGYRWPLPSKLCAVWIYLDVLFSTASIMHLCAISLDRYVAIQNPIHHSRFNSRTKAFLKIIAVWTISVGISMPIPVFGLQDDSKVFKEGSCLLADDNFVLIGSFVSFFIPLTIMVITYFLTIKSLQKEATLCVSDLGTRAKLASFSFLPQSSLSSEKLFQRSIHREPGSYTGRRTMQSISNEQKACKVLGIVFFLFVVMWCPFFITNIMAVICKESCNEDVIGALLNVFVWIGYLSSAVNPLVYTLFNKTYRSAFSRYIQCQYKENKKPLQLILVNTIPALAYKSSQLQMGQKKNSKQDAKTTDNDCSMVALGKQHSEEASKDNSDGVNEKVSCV

As for `O=C(O)c1sc2cc(F)sc2c1Cl` [PF-07208254], in experiment [1] (100 µM), the “% (agonism) PF-07208254” value is given as -5%. In experiment [2], this molecule registered an IC50 of 56 ± 26 nM. In addition, the Kd in experiment [3] amounted to 84 ± 8.7 nM.

On to `CC(C)COc1ccc(-c2nc(-c3ccccc3C(=O)O)cs2)cn1` [PF-07238025], for which the EC50 in experiment [4] (stabilises BDK-E2 interaction, pH […] KCl, […] MgCl2, […] DTT) stood at 19 ± 1.7 nM. The values for the IC50 in experiment [5] and in experiment [6] were 59 ± 10 nM and 4.5 ± 0.58 nM, respectively. Besides, the Kd in experiment [3] came out at 4.4 ± 1.1 nM.

`CCC1(COc2ccc(-c3csc(-c4ccccc4C(=O)O)n3)cn2)CC1` [PF-07247685]: the “% (agonism) PF-07247685” value in experiment [1] (10 µM) is 3%. In experiment [4], a half-maximal effect (EC50) was put at 2.2 ± 0.35 nM. For the same molecule, in experiment [6], the IC50 was determined as 0.86 ± 0.15 nM. Also, the Kd in experiment [3] turned out to be 0.68 ± 0.38 nM.

For the molecule `O=C(O)c1sc2cc(Cl)sc2c1Cl` [S1], in experiment [7], the IC50 was determined as 600 ± 51 nM. The Kd in experiment [8] came to 75 ± 2 nM.

With `O=C(O)c1cc2sc(F)cc2s1` [S2], the IC50 in experiment [7] came out at 210 ± 10 nM. The Kd in experiment [8] amounted to 270 ± 31 nM.

Regarding `Cc1ccc(-c2nc(-c3ccccc3C(=O)O)cs2)cc1` [S3], the half-inhibitory concentration (IC50) in experiment [7] came out at 1200 ± 490 nM. Moreover, in experiment [8], the Kd was 5800 ± 4400 nM.

Values taken from article PMC10412597, “Small molecule branched-chain ketoacid dehydrogenase kinase (BDK) inhibitors with opposing effects on BDK protein levels” (Nature Communications, 2023).
